# Data taken from EP4813999A1, “NOVEL PEPTIDE DERIVATIVE AND PHARMACEUTICAL COMPOSITION FOR PREVENTING OR TREATING MACULAR DEGENERATION COMPRISING SAME” (Supadelixir Inc., priority 2023, dated 2026).
# What was measured:
# AKT and ERK = experiment: VEGF-induced phosphorylation of AKT and ERK (immunoblot); format: cell-based, human; details: HUVECs; VEGF co-treatment; test substance 0.1, 1, 10, 100 nM; 10 minutes
# Experimental: The experiment was conducted by dividing the groups into an untreated group, a group treated with VEGF alone, and a group co-treated with VEGF and the test substance (SE101B2L).
# Additionally, whether the test substance could regulate the phosphorylation levels of AKT and ERK molecules, which are important in signaling related to VEGF-induced angiogenesis, was tested. Into a 6-well plate containing 2 ml of growth medium, 2 × 10^5 HUVECs were added and seeded, followed by incubation in an incubator with 5% CO2 at 37°C for one day. Subsequently, after washing the cells with phosphate-buffered saline (PBS), incubation was performed for an additional 6 hours using CEFOgro-HUVEC medium containing 1% fetal bovine serum. The prepared cells were divided into an untreated group, a group treated with VEGF alone, and groups co-treated with VEGF and the test substance (0.1, 1, 10, and 100 nM), followed by treatment with the test substance. […] Protein amounts of the cell lysates were measured by a Bradford assay, followed by separation using sodium dodecyl sulfate-polyacrylamide gel electrophoresis (SDS-PAGE). […]
# VE-cadherin and ZO-1 = experiment: Expression levels and patterns of junctional proteins (immunofluorescence); format: cell-based, human; details: HUVECs; VEGF 50 ng/mL, 90 minutes; test substance 10 and 100 nM
# Source text: Whether the test substance (SE101B2L) could regulate changes in permeability caused by VEGF-induced changes in membrane protein stability of vascular endothelial cells was confirmed. Expression levels and patterns of VE-cadherin and ZO-1, which are junctional proteins associated with vascular stability and permeability and connect cells to one another, were confirmed. One circular coverslip having a diameter of 12 mm was placed in each well of a 24-well plate, and gelatin was applied using a 2% gelatin solution to facilitate cell attachment. Into the prepared wells, 1 × 10^5 HUVECs were seeded per well. The cells were cultured in an incubator with 5% CO2 at 37°C for 4 days, with the growth medium replaced every other day. After confirming that the cells had become completely confluent, the cells were incubated for 1 hour using serum-free CEFOgro-HUVEC medium. At this time, the test substance was added to the corresponding wells to final concentrations of 10 and 100 nM. Upon completion of the incubation, VEGF at a final concentration of 50 ng/mL was added, followed by incubation for an additional 90 minutes. The incubated samples were fixed at room temperature for 15 minutes using a 10% formalin solution. […] The corresponding samples were photographed under a fluorescence microscope.
# ARPE19 cells = experiment: Hydrogen peroxide-induced cellular senescence (SA-β-Gal activity staining); format: cell-based, Human; details: 200 µM hydrogen peroxide, test substance 0.01, 0.1, 1 µM, 24 hours
# Experimental: Human retinal pigment epithelial cells (ARPE19) were cultured in a humidified incubator with 5% CO2 at 37°C. DMEM/F12 (Gibco) containing 10% fetal bovine serum and penicillin (100 U/ml)/streptomycin ([…]) was used as medium. The cells were cultured with the medium replaced with fresh medium every other day and were passaged using 0.25% trypsin containing 0.02% ethylenediaminetetraacetic acid (EDTA).
# After cellular senescence caused by oxidative stress was promoted in ARPE19 cells using hydrogen peroxide (H2O2), the test substance (SE101B2L) was added at varying concentrations to evaluate inhibitory effects against cellular senescence. Inhibitory activity against cellular senescence was evaluated using senescence-associated β-galactosidase (SA-β-Gal) activity staining, which is well known as a marker for cellular senescence.
# ARPE19 cells were seeded into a 96-well plate at 1 × 10^5 cells/well and cultured in an incubator with 5% CO2 at 37°C for 24 hours. […] Cells stained blue were observed under an optical microscope, and the degree of SA-β-gal activity was expressed as a percentage by measuring the number of cells stained blue in the cytoplasm among a total of 50 to 100 cells. The degree of senescence was quantified through measurement.
substance,measurement,setting,value
decylbenzoyl-Cys-Phe-Lys-amide [SE101B2L],"phosphorylation levels of signaling molecules (AKT, ERK)",AKT and ERK,reduced by the test substance in a concentration-dependent manner
same,"expression levels and patterns of junctional proteins between cells (VE-cadherin, ZO-1)",VE-cadherin and ZO-1,appear similarly to those of the untreated group in a concentration-dependent manner
same,SA-β-gal activity,ARPE19 cells,decreases SA-β-gal activity in a concentration-dependent manner
